Data: patent US8426434B2, “Crystalline form of 4-[[4-[[4-(2-Cyanoethenyl)-2,6-dimethylphenyl]-amino]-2-pyrimidinyl]amino]benzonitrile” (Tibotec Pharmaceuticals Ltd., priority 2007, dated 2013)
≈ marks a conversion by molar mass, not a printed value. Where “and” joins values, the source holds several entries; their conditions need not be identical. Equal entries are not always repeated. Where two headings read alike, the source gives them in different places.

Key:
[1] = Intrinsic dissolution (USP dissolution apparatus 2, tablet in PTFE holder, UV at 266 nm); assay type: physicochemical; details: for average intrinsic dissolution rate / slope, average: average of samples 1-6, 0.01N HCl/methanol 1:1, 37° C.; for average intrinsic dissolution rate / slope, average / slope / intrinsic dissolution rate (IDR): 150 rpm; for slope, average: 0 to 60 min; for slope / intrinsic dissolution rate (IDR): single samples, 500 ml 0.01N HCl/methanol 1:1, 37° C.; for slope: slope calculated from 0 to 60 min; for intrinsic dissolution rate (IDR): tablet surface 0.5026 cm^2
Protocol: A Hanson Research SR6™ dissolution testing station equipped with a USP dissolution apparatus 2 as paddle and a poly(tetrafluoroethylene (PTFE) tablet holder was used. UV spectrometry was used to determine the concentration of TMC278 in solution. The UV analysis was carried out on an Agilent 8453™ spectrophotometer using a 2 ml cuvet. A single wavelength measurement at 266 nm was recorded with single component analysis (SCA), a single component measurement.
About 125 mg of the compound was weighed into a mould with a diameter of 0.8 cm. A tablet was made with a Speca press imposing a pressure of 1 ton for tabletting. The surface area of the tablet was 0.5026 cm^2. The tablet was adhered to the PTFE tablet holder.
21.8 mg of TMC278 was weighed into a volumetric flask of 25 ml. The product was dissolved in a 1:1.5 tetrahydrofuran/methanol mixture. A 1 ml aliquot was transferred into a 200 ml volumetric flask and diluted to the mark using 0.01N HCl. The concentration of the reference solution was […].
The tablet holders with the tablets were placed in a USP2 dissolution bath. The vessels contained 500 ml 0.01N HCl/methanol 1:1 and were thermostatically controlled at 37° C. The paddles were used with a rotation speed of 150 rpm (rounds per minute). A sample was withdrawn each 10 minutes and the concentration was determined with UV spectrometry. The slope was calculated on the measuring points between 0 and 60 minutes. The slope was expressed as mg %/minute. The intrinsic dissolution rate (IDR), expressed as mg/(cm^2×min), was calculated.

[2] = Solubility in buffer pH4, buffer pH2 and 0.01N HCl; assay type: physicochemical
wild type HIV = details: in words; described in WO 03/16306; cited from earlier work
[3] = tested on: drug and multidrug resistant HIV strains; details: in words; strains resistant to NNRTIs such as efavirenz, nevirapine, delavirdine; cited from earlier work

Cc1cc(/C=C/C#N)cc(C)c1Nc1ccnc(Nc2ccc(C#N)cc2)n1 [TMC278 polymorph I, (E) 4-[[4-[[4-(2-cyanoethenyl)-2,6-dimethylphenyl]amino]-2-pyrimidinyl]amino]benzonitrile]
average intrinsic dissolution rate [1]: 0.3362 mg/(cm^2 × min)
slope, average [1]: 0.0338 mg %/minute
intrinsic dissolution rates, compared to Polymorph II ([1]; in words): increased intrinsic dissolution rates
slope [1]: 0.0358 mg %/minute and 0.0353 mg %/minute and 0.0309 mg %/minute and 0.0347 mg %/minute and 0.0343 mg %/minute and 0.0319 mg %/minute
intrinsic dissolution rate (IDR) [1]: 0.3559 mg/(cm^2 × min) and 0.3508 mg/(cm^2 × min) and 0.3074 mg/(cm^2 × min) and 0.3447 mg/(cm^2 × min) and 0.3417 mg/(cm^2 × min) and 0.3169 mg/(cm^2 × min)
Solubility ([2]; 0.01N HCl, pH 2.1): 4.1 mg/100 ml
Solubility ([2]; Buffer pH4, pH 4.0): 0.07 mg/100 ml
Solubility ([2]; buffer pH2, pH 2.1, aqueous buffer, Buffer pH2, pH 2.1, read-out: Solubility): 6.4 µg/mL (≈ 17.5 µM)
solubility at lower pH, compared to Polymorph II ([2]; lower pH, in words): increased solubility at lower pH

Cc1cc(/C=C/C#N)cc(C)c1Nc1ccnc(Nc2ccc(C#N)cc2)n1 [TMC278 polymorph II, 4-[[4-[[4-(2-cyanoethenyl)-2,6-dimethylphenyl]-amino]-2-pyrimidinyl]-amino-]-benzonitrile, reference compound]
average intrinsic dissolution rate [1]: 0.2886 mg/(cm^2 × min)
slope, average [1]: 0.0290 mg %/minute
average intrinsic dissolution rate ([1]; listed as polymorph II): 0.2886 mg/(cm^2 × min)
slope [1]: 0.0283 mg %/minute and 0.0281 mg %/minute and 0.0290 mg %/minute and 0.0305 mg %/minute and 0.0288 mg %/minute and 0.0294 mg %/minute
intrinsic dissolution rate (IDR) [1]: 0.2819 mg/(cm^2 × min) and 0.2795 mg/(cm^2 × min) and 0.2886 mg/(cm^2 × min) and 0.3035 mg/(cm^2 × min) and 0.2861 mg/(cm^2 × min) and 0.2921 mg/(cm^2 × min)
Solubility ([2]; 0.01N HCl, pH 2.1): 1.9 mg/100 ml
Solubility ([2]; Buffer pH4, pH 4.0): 0.03 mg/100 ml

Cc1cc(/C=C/C#N)cc(C)c1Nc1ccnc(Nc2ccc(C#N)cc2)n1 [TMC278, 4-[[4-[[4-(2-cyanoethenyl)-2,6-dimethylphenyl]-amino]-2-pyrimidinyl]-amino-]-benzonitrile]
solubility in water ([2]; water, in words): relatively low solubility in water
activity against wild type HIV (wild type HIV): pronounced activity
activity against drug and multidrug resistant HIV strains [3]: shows activity
